For four compounds, IC50 results are on record in patent US11365263B2, “Bifunctional cytotoxic agents containing the CTI pharmacophore” (PFIZER INC., priority 2015, dated 2022).

Assay type in all cases: cell-based
Assay [1] has as its system N87 (human gastric carcinoma). Kind of assay: Cytotoxicity assay for payloads (MTS), N87. The settings on record: 96 h, N87 cells, four days incubation, read-out: Free payload potency (IC50), N87. Here is the method:
(§1) Cancer cell lines were obtained from ATCC (Manassas, Va.). N87 (human gastric carcinoma derived from metastatic liver site). HL60 (leukemia) and MDA-MB-361 DYT2 (human breast carcinoma MDA-MB-361) were grown in RPMI 1640 media. All media were supplemented with 10% fetal bovine serum, 1% sodium pyruvate, and 1% L-glutamine (Invitrogen, Grand Island, N.Y.). Human umbilical vein endothelial cells (HUVEC) were obtained from Lonza (Allendale, N.J.) and maintained in EGM2 media supplemented with EGM-2 SingleQuots (Lonza #CC-4176). All cells were maintained in a humidified incubator (37° C., 5% CO2).
(§2) Cytotoxicity Assay Procedure for Payloads
(§3) Cells in 100 μl medium were cultured in a 96-well plate. Cancer cell lines treated with the indicated compounds by adding 50 μl of 3× stocks in duplicate at 10 concentrations. Cells were incubated with compounds for four days, then 30 μl of CellTiter® 96 AQueous One MTS Solution (Promega Cat #G3582) was added to the cells, incubated 1.5 hr at 37° C., then absorbance measured at 490 nm on a Victor plate reader (Perkin Elmer, Waltham, Mass.). Relative cell viability was determined as a percentage of untreated control wells. IC50 values were calculated using four parameter logistic model #203 with XLfit v4.2 (IDBS, Guildford, Surry, UK).

Assay [2] relates to HL60 (leukemia). The assay can be described thus: Cytotoxicity assay for payloads (MTS), HL60. The following applies: Homo sapiens, HL-60, 96 h, HL60 cells, four days incubation, read-out: Free payload potency (IC50), HL60. Here is the method: as §1, §2, §3
The test system of assay [3] is MDA-MB-361 DYT2 (human breast carcinoma). The assay can be described thus: Cytotoxicity assay for payloads (MTS), MDA-MB-361 DYT2. The following applies: 96 h, MDA-MB-361 DYT2 cells, four days incubation, read-out: Free payload potency (IC50), DYT2. Here is the method: as §1, §2, §3

What is called IC50 is the midpoint of a concentration-inhibition curve. Turning to `CC(=O)Oc1cc2c(c3c(C)csc13)[C@H](CCl)CN2C(=O)C12C3C4C1C1C2C3C41C(=O)N1C[C@@H](CCl)c2c1cc(OC(C)=O)c1scc(C)c21` (stereo partly drawn) [Compound 60, pentacyclo[4.2.0.0^˜2,5^˜.0^˜3,8^˜.0^˜4,7^˜]octane-1,4-diylbis[carbonyl(8S)-8-(chloromethyl)-1-methyl-7,8-dihydro-6H-thieno[3,2-e]indole-6,4-diyl]diacetate], the figures for the IC50 in assay [1], in assay [2] and in assay [3] were 122 pM, 9 pM and 79 pM, respectively.
For `[2H]C([2H])(CC(=O)N1C[C@@H](CCl)c2c1cc(OC(C)=O)c1scc(C)c21)CC(=O)N1C[C@@H](CCl)c2c1cc(OC(C)=O)c1scc(C)c21` [Compound 87], in that order: 36 pM, 349 pM and 2 pM.
Take `[2H]C([2H])(CC([2H])([2H])C(=O)N1C[C@@H](CCl)c2c1cc(OC(C)=O)c1scc(C)c21)C(=O)N1C[C@@H](CCl)c2c1cc(OC(C)=O)c1scc(C)c21` [Compound 88]: the values for the IC50 in assay [1], in assay [2] and in assay [3] were 41 pM, 410 pM and 4 pM, respectively.
The matching figures for `[2H]C([2H])(C(=O)N1C[C@@H](CCl)c2c1cc(OC(C)=O)c1scc(C)c21)C([2H])([2H])C([2H])([2H])C(=O)N1C[C@@H](CCl)c2c1cc(OC(C)=O)c1scc(C)c21` [Compound 89]: 41 pM, 302 pM and 2 pM.
